For test [1], the system named is E. coli D31m4(pHCM1). The experiment in a line: MIC by broth dilution method (Table 4). The class given is cell-based. On the set-up: unit not given here. As to conditions: E. coli D31m4(pHCM1) Tcr; 18 hours. Here is the method: (§1) The minimum inhibitory concentration, the lowest concentration of drug that inhibits bacterial growth at 18 hours at their appropriate temperature, is determined by the broth dilution method using L-broth or Muller-Hinton broth. The Muller-Hinton broth was cation-adjusted accordingly and all bacteriological methods were performed as was described by Waitz, J. A., National Commision for Clinical Laboratory Standards Document M7-A2, vol.10, no. 8, pp.13-20, 2nd edition, Villanova, Pa. (1990). The organisms tested represent gram-positive and gram-negative bacterial species that are susceptible to tetracyclines or are resistant to tetracyclines due to the ability to efflux tetracyclines or which confer resistance by ribosomal protection mechanisms. The clinical strains used are either susceptible to tetracyclines or are resistant to them by either drug efflux or ribosomal protection.

Test [2] concerns S. aureus MRSA5. Kind of test: MIC by broth dilution method (Table 4). The class given is cell-based. As to conditions: S. aureus MRSA5 Tc^r; 18 hours. The arrangement: unit not given here. The method, then:
as §1
In general terms: In broth dilution the organism is exposed to a series of concentrations in liquid medium.

Test [3] relates to S. aureus RN450. The experiment in a line: MIC by broth dilution method (Table 4). The format is cell-based. The arrangement: unit not given here. The conditions noted are these: S. aureus RN450 Tc^s; 18 hours. Here is the method: as §1
Test [4] deals with E. faecalis pMV158. Kind of test: MIC by broth dilution method (Table 4). The format is cell-based. On the set-up: unit not given here. As to conditions: E. faecalis pMV158 Tc^r; 18 hours. Here is the method: as §1
In test [5] the test system is E. faecalis ATCC9790. Kind of test: MIC by broth dilution method (Table 4). The format is cell-based. On the set-up: unit not given here. The conditions noted are these: E. faecalis Tc^r ATCC9790; 18 hours. The method, then: as §1
Test [6] deals with E. coli D31m4. The experiment in a line: MIC by broth dilution method (Table 4). The format is cell-based. On the set-up: unit not given here. As to conditions: E. coli D31m4* Tc^r, lipopolysaccharide-deficient mutant; 18 hours. Here is the method: as §1
The test system of test [7] is S. aureus ATCC12715. The experiment in a line: MIC by broth dilution method (Table 4). The class given is cell-based. The arrangement: unit not given here. The conditions noted are these: S. aureus Tc^r ATCC12715; 18 hours. The method, then:
as §1

Test [8] has as its system E. faecalis pAM211. The experiment in a line: MIC by broth dilution method (Table 4). The format is cell-based. The arrangement: unit not given here. The conditions noted are these: E. faecalis pAM211 Tc^r; 18 hours. The method, then:
as §1

The subject of test [9] is S. aureus RN4250. The experiment in a line: MIC by broth dilution method (Table 4). The class given is cell-based. On the set-up: unit not given here. The conditions noted are these: S. aureus RN4250 Tc^r; 18 hours. Here is the method:
as §1

The subject of test [10] is E. faecalid pMV158 (L). Kind of test: MIC in L broth tubes (Example 10). The format is cell-based, E. faecalis. As to conditions: Enterococcus faecalis, read-out: Minimum Inhibitory Concentration. Here is the method:
(§2) The inhibitory effects of compounds of the invention were examined relative to doxycycline using tetracycline-sensitive and tetracycline-resistant strains of E. coli, S. aureus, and E. faecalis as specified in the Tables below. The general protocol for performing these experiments was as follows: cultures were grown up fresh in L broth in the morning from an overnight culture. After 4-6 hours of growth, each bacterial culture was diluted to an A530 of 0.2-0.5 depending on the strain (E. coli, 0.5; S. aureus, 0.4; E. faecalis, 0.2). Individual tubes, containing 1 ml of L broth and different concentrations of the tested compound, were inoculated with the different bacterial cultures and then incubated at 37° C. After 17-18 hours of incubation, the concentration of the tested compound at which no observed cloudiness was seen was called the minimal inhibitory concentration (MIC). The results obtained are set forth in Tables 2 and 3 below, with the MIC values expressed in μg/ml and set forth in columns beneath the tested compound.

In test [11] the test system is MRSA 1. The experiment in a line: MIC in L broth tubes (Example 10). The class given is cell-based, S. aureus. Here is the method: as §2
For test [12], the system named is MRSA 3. Kind of test: MIC in L broth tubes (Example 10). The class given is cell-based, S. aureus. The conditions noted are these: Staphylococcus aureus, read-out: Minimum Inhibitory Concentration. The method, then:
as §2

For test [13], the system named is VRE 11. The experiment in a line: MIC in L broth tubes (Example 10). The class given is cell-based. The conditions noted are these: Enterococcus, read-out: Minimum Inhibitory Concentration. Here is the method:
as §2

For test [14], the system named is S. aureus RN4250 (K). The experiment in a line: MIC in L broth tubes (Example 10). The conditions noted are these: Staphylococcus aureus, read-out: Minimum Inhibitory Concentration. The format is cell-based. Here is the method:
as §2

Test [15] has as its system S. aureus RN450. Kind of test: MIC in L broth tubes (Example 10). The class given is cell-based. As to conditions: Staphylococcus aureus; S. aureus RN450, tetracycline sensitive; 17-18 hours, 37° C.; read-out: Minimum Inhibitory Concentration. The method, then:
as §2

Test [16] deals with E. coli D31m4(pHCM1) (B). The experiment in a line: MIC in L broth tubes (Example 10). The format is cell-based. The conditions noted are these: Escherichia coli, read-out: Minimum Inhibitory Concentration. Here is the method:
as §2

Test [17] relates to E. faecalis pAM211 (L). Kind of test: MIC in L broth tubes (Example 10). The format is cell-based. The conditions noted are these: Enterococcus faecalis, read-out: Minimum Inhibitory Concentration. The method, then:
as §2

Test [18] has as its system E. faecalis ATCC9790. The experiment in a line: MIC in L broth tubes (Example 10). The class given is cell-based. As to conditions: Enterococcus faecalis; E. faecalis ATCC9790, tetracycline sensitive; 17-18 hours, 37° C.; read-out: Minimum Inhibitory Concentration. The method, then:
as §2

For test [19], the system named is E. coli D31m4. The experiment in a line: MIC in L broth tubes (Example 10). The class given is cell-based. As to conditions: Escherichia coli, D31M4, read-out: Minimum Inhibitory Concentration. The method, then:
as §2

Test [20] deals with VRE 17. The experiment in a line: MIC in L broth tubes (Example 10). The format is cell-based. As to conditions: Enterococcus; VRE 17, tetracycline sensitive; read-out: Minimum Inhibitory Concentration. Here is the method: as §2
The test system of test [21] is VRE 15. The experiment in a line: MIC in L broth tubes (Example 10). The conditions noted are these: Enterococcus, read-out: Minimum Inhibitory Concentration. The class given is cell-based. Here is the method:
as §2

The subject of test [22] is VRE 19. Kind of test: MIC in L broth tubes (Example 10). As to conditions: Enterococcus; VRE 19, tetracycline sensitive; read-out: Minimum Inhibitory Concentration. The format is cell-based. Here is the method: as §2
Test [23] has as its system S. aureus 12715 (K). The experiment in a line: MIC in L broth tubes (Example 10). The format is cell-based. The conditions noted are these: Staphylococcus aureus, tetracycline resistant, 17-18 hours, 37° C., read-out: Minimum Inhibitory Concentration. The method, then: as §2

Values after ≈ are worked out from the molar mass of the structure shown. Bounds are passed on as bounds.

Consider one compound from patent US20040152674A1, “Pharmaceutically active compounds and methods of use thereof” (Trustees of Tufts College, priority 1998, published 2004).

`C[C@H]1c2cccc(O)c2C(=O)C2=C(O)[C@]3(O)C(=O)C(C(N)=O)=C(O)[C@@H](N(C)C)C3[C@@H](O)C21` (stereo partly drawn) [Doxycycline, [4S-(4alpha,12aalpha)]-4-(dimethylamino)-1,4,4a,5,5a,6,11,12a-octahydro-3,5,10,12,12a-pentahydroxy-6-methyl-1,11-dioxo-2-naphthacenecarboxamide, reference compound]: the “Antibacterial activity (minimum inhibitory concentration)” value is 12.5 in [1]; 6.25 in test [2]; 0.195 in test [3]; 6.25 in test [4]; 0.39 in test [5]; 0.78 in test [6]. Besides, the entries for the “Antibacterial activity (minimum inhibitory concentration)” value in test [7], in [8] and in test [9] were 50, 12.5 and 25, respectively. Further, the MIC in test [10] is 12.5 µg/mL (≈ 28.1 µM); in test [11] (Staphylococcus aureus, MRSA, read-out: Minimum Inhibitory Concentration), 6.25 µg/mL (≈ 14.1 µM); in test [12], 6.25 µg/mL (≈ 14.1 µM); in test [13], 12.5 µg/mL (≈ 28.1 µM); in test [14] it was 12.5 µg/mL (≈ 28.1 µM); in test [15], below 0.78 µg/mL. Also, the MIC in [16] is 12.5 µg/mL (≈ 28.1 µM); in test [17], 12.5 µg/mL (≈ 28.1 µM); in test [18] it was below 0.78 µg/mL; in test [19] it was below 0.78 µg/mL; in [20], at most 1.56 µg/mL; in test [21] it was 12.5 µg/mL (≈ 28.1 µM). For the same compound, the MIC in test [22] is at most 1.56 µg/mL; in [23] it was 25 µg/mL (≈ 56.3 µM). Besides, the “Minimum Inhibitory Concentration” value in test [11] (MRSA 1, listed under Tetracycline Sensitive Bacteria) came out at 6.25 µg/mL.
